According to patent publication US7045537B1, “Protein structures and protein fibres” (The University of Sussex, priority 1999, dated 2006):
Residues, ends and D or L forms follow the SMILES beside them.

Assays:
Format in all cases: physicochemical
[1] = Solubility remarks in peptide design table; conditions: individual peptide
Description: Various peptide monomer units were designed as described above. The monomers and capping peptides (designed to complement the sticky ends of the monomers so as to produce flush, or blunt ends and, so, arrest longitudinal fibre assembly) are set out in Table 1: […]

[2] = Electron microscopy (TEM/SEM) of peptide preparations; conditions: individual peptide
Description: To confirm fibre assembly, we used electron microscopy to visualize structures in the peptide preparations directly. For TEM experiments, peptide samples were incubated for 1 h at 5° C. in filtered 10 mM MOPS, pH 7. A drop of peptide solution was applied to a carbon-coated copper specimen grid (Agar Scientific Ltd, Stansted, UK), and dried with filter paper before negative staining with 0.5% aqueous uranyl acetate and then dried at 5° C. A “fresh” SAF peptide mixture was prepared by mixing preincubated solutions of the individual peptides at 200 μM directly on the specimen grid, before drying and negative staining as described. Grids were examined in a Hitachi 7100 TEM at 100 kV and digital images were acquired with a (800×1200 pixel) charge-coupled device camera (Digital Pixel Co. Ltd., Brighton, UK) and analyzed (Kinetic Imaging Ltd., Liverpool, UK).
For scanning electron microscopy (SEM) experiments, negatively-stained specimen grids were sputter-coated with gold and examined in a Leo Stereoscan 420 SEM at 20 kV and with a probe current of 10 pA.

[3] = Circular dichroism (CD) spectroscopy of peptides and peptide mixtures; conditions: individual peptide, 10 mM MOPS pH 7, 5° C.
Description: Peptide samples were incubated at 5° C. in 10 mM MOPS (3-(N-Morpholino)propanesulfonic acid), pH 7. Sample concentrations were determined from their UV absorbance at 280 nm (SAF-p1) and 214 nm (SAF-p2). After baseline correction, ellipticities in mdeg were converted to molar ellipticities (deg cm^2 dmol-res^−1) by normalizing for the concentration of peptide bonds. Data were recorded in a cell of 1 mm path length by integrating the signal for 5s (and 1s for the fresh 100 μM peptide mixture) every nm in the range 205–260 nm. CD measurements were made using a JASCO J-715 spectropolarimeter fitted with a Peltier temperature controller.
The CD data shown in FIG. 3 provides spectroscopic evidence for the formation of helical structures by the SAF peptides.
Consistent with our design, neither SAF-p1 nor SAF-p2 was highly structured in aqueous solution at pH 7 and 5° C. (FIG. 3). However, when mixed in equal proportions the circular dichroism (CD) spectrum changed and, moreover, was markedly different from the theoretical spectrum generated by averaging the spectra for the isolated peptides. In particular, the spectrum for the mixture had intense minima at 208 and 222 nm consistent with the formation of α-helical structure, but these features were not as pronounced in the spectra of the individual peptides. This was clear evidence that the two peptides interacted to form an α-helical structure as designed. Furthermore, and as expected for a multimerization event, the magnitude of these spectral changes depended on peptide concentration; a SAF mixture with 10 μM of each peptide, did show a weak signal indicative of some α-helical structure, however, a 100 μM mixture gave a much stronger signal (FIGS. 3A&B).
The shape and intensity of spectra from 100 μM mixtures of the SAF peptides also changed with time (FIG. 3B). […] After incubation of the mixture for 1 hour at 5° C. (“maturation”), however, the signal at 222 nm was more intense, and indicated approximately 75% α-helix, consistent with substantial coiled-coil formation.

[4] = Linear dichroism (LD) spectroscopy under shear flow; conditions: for LD DATA @ 100 μM (signal): individual peptide
Description: Linear dichroism (LD) spectroscopy was also used to test if elongated structures were being formed as designed. Long polymers such as DNA molecules can be oriented by shear flow. This effect can be monitored by LD spectroscopy provided that chromophores also become aligned by the flow (M. Bloemendal (1994) Chem. Soc. Rev. 23, 265; A. Rodger and B. Norden (1997) Oxford Chemistry Masters (Oxford University Press, Oxford), vol. 1).
Peptide samples were prepared for LD as for CD. LD data were collected on samples spinning in a couette flow cell by integrating the signal for 2 s every nm in the range […], using a JASCO J-715 spectropolarimeter. After baseline correction, absorbance was converted to molar extinction coefficient (1 mol-res^−1 cm^−1) by normalizing for the concentration of peptide bonds. A linear correction for a sloping baseline was made to the data from the 100 μM SAF peptide mixture.

Compound | DESIGN remark on solubility / precipitation [1] | EM DATA @ 100 μM (fibres) [2] | CD DATA @ 10 μM (α-helix) [3] | CD DATA @ 100 μM (α-helix) [3] [%] | LD DATA @ 100 μM (signal) [4] | LD signal ([4]; 20 μM)
CC[C@H](C)[C@H](NC(=O)[C@H](CCCCN)NC(=O)[C@H](CCC(N)=O)NC(=O)[C@H](CCCCN)NC(=O)[C@H](CC(C)C)NC(=O)[C@H](C)NC(=O)[C@H](C)NC(=O)[C@@H](NC(=O)[C@@H](N)CCCCN)[C@@H](C)CC)C(=O)N[C@@H](C)C(=O)N[C@@H](C)C(=O)N[C@@H](CC(C)C)C(=O)N[C@@H](CCCCN)C(=O)N[C@@H](CCC(N)=O)C(=O)N[C@@H](CCC(=O)O)C(=O)N[C@H](C(=O)N[C@@H](CC(=O)O)C(=O)N[C@@H](C)C(=O)N[C@@H](CC(C)C)C(=O)N[C@@H](CCC(=O)O)C(=O)N[C@@H](Cc1ccc(O)cc1)C(=O)N[C@@H](CCC(=O)O)C(=O)N[C@@H](CC(N)=O)C(=O)N[C@@H](CC(=O)O)C(=O)N[C@@H](C)C(=O)N[C@@H](CC(C)C)C(=O)N[C@@H](CCC(=O)O)C(=O)N[C@@H](CCC(N)=O)C(=O)O)[C@@H](C)CC [SAF-p1A] (H-KIAALKQKIAALKQEIDALEYENDALEQ-OH) | precipitates | no | unfolded | ~45 |  | 
CC[C@H](C)[C@H](NC(=O)[C@H](CCCCN)NC(C)=O)C(=O)N[C@@H](C)C(=O)N[C@@H](C)C(=O)N[C@@H](CC(C)C)C(=O)N[C@@H](CCCCN)C(=O)N[C@@H](CCC(N)=O)C(=O)N[C@@H](CCCCN)C(=O)N[C@H](C(=O)N[C@@H](C)C(=O)N[C@@H](C)C(=O)N[C@@H](CC(C)C)C(=O)N[C@@H](CCCCN)C(=O)N[C@@H](CCC(N)=O)C(=O)N[C@@H](CCC(=O)O)C(=O)N[C@H](C(=O)N[C@@H](CC(=O)O)C(=O)N[C@@H](C)C(=O)N[C@@H](CC(C)C)C(=O)N[C@@H](CCC(=O)O)C(=O)N[C@@H](Cc1ccc(O)cc1)C(=O)N[C@@H](CCC(=O)O)C(=O)N[C@@H](CC(N)=O)C(=O)N[C@@H](CC(=O)O)C(=O)N[C@@H](C)C(=O)N[C@@H](CC(C)C)C(=O)N[C@@H](CCC(=O)O)C(=O)N[C@@H](CCC(N)=O)C(N)=O)[C@@H](C)CC)[C@@H](C)CC [SAF-p1B, *K IAALKQK IAALKQE IDALEYE NDALEQ*] (Ac-KIAALKQKIAALKQEIDALEYENDALEQ-NH2) |  |  | ~60% | ~70 |  | 
CC[C@H](C)[C@H](NC(=O)[C@H](CCCCN)NC(=O)[C@H](CCC(N)=O)NC(=O)[C@H](CCCCN)NC(=O)[C@H](CC(C)C)NC(=O)[C@H](C)NC(=O)[C@H](C)NC(=O)[C@@H](NC(=O)[C@@H](N)CCCCN)[C@@H](C)CC)C(=O)N[C@@H](C)C(=O)N[C@@H](CO)C(=O)N[C@@H](CC(C)C)C(=O)N[C@@H](CCCCN)C(=O)N[C@@H](CCC(N)=O)C(=O)N[C@@H](CCC(=O)O)C(=O)N[C@H](C(=O)N[C@@H](CC(=O)O)C(=O)N[C@@H](C)C(=O)N[C@@H](CC(C)C)C(=O)N[C@@H](CCC(=O)O)C(=O)N[C@@H](Cc1ccc(O)cc1)C(=O)N[C@@H](CCC(=O)O)C(=O)N[C@@H](CC(N)=O)C(=O)N[C@@H](CC(=O)O)C(=O)N[C@@H](C)C(=O)N[C@@H](CC(C)C)C(=O)N[C@@H](CCC(=O)O)C(=O)N[C@@H](CCC(N)=O)C(=O)O)[C@@H](C)CC [SAF-p1C] (H-KIAALKQKIASLKQEIDALEYENDALEQ-OH) |  | no | unfolded | ~20 | no | 
CC[C@H](C)[C@H](NC(=O)[C@H](CCC(=O)O)NC(=O)[C@H](CCC(N)=O)NC(=O)[C@H](CCC(=O)O)NC(=O)[C@H](CC(C)C)NC(=O)[C@H](C)NC(=O)[C@H](C)NC(=O)[C@@H](NC(=O)[C@H](CCC(=O)O)NC(=O)[C@H](CCC(N)=O)NC(=O)[C@H](CCCCN)NC(=O)[C@H](CC(C)C)NC(=O)[C@H](Cc1c[nH]cn1)NC(=O)[C@H](C)NC(=O)[C@H](CC(N)=O)NC(=O)[C@H](CCCCN)NC(=O)[C@H](Cc1c[nH]c2ccccc12)NC(=O)[C@H](CCCCN)NC(=O)[C@H](CC(C)C)NC(=O)[C@H](C)NC(=O)[C@H](CCCNC(=N)N)NC(=O)[C@@H](NC(=O)[C@H](CCCCN)NC(C)=O)[C@@H](C)CC)[C@@H](C)CC)C(=O)N[C@@H](C)C(=O)N[C@@H](C)C(=O)N[C@@H](CC(C)C)C(=O)N[C@@H](CCC(=O)O)C(=O)N[C@@H](CCC(N)=O)C(N)=O [SAF-p2B, *K IRALKWK NAHLKQE IAALEQE IAALEQ*] (Ac-KIRALKWKNAHLKQEIAALEQEIAALEQ-NH2) |  |  | ~60% | ~95 |  | 
CC[C@H](C)[C@H](NC(=O)[C@H](CCC(=O)O)NC(=O)[C@H](CCC(N)=O)NC(=O)[C@H](CCC(=O)O)NC(=O)[C@H](CC(C)C)NC(=O)[C@H](C)NC(=O)[C@H](C)NC(=O)[C@@H](NC(=O)[C@H](CCC(=O)O)NC(=O)[C@H](CCC(N)=O)NC(=O)[C@H](CCCCN)NC(=O)[C@H](CC(C)C)NC(=O)[C@H](Cc1c[nH]cn1)NC(=O)[C@H](C)NC(=O)[C@H](CC(N)=O)NC(=O)[C@H](CCCCN)NC(=O)[C@H](Cc1c[nH]c2ccccc12)NC(=O)[C@H](CCCCN)NC(=O)[C@H](CC(C)C)NC(=O)[C@H](C)NC(=O)[C@H](CCCNC(=N)N)NC(=O)[C@@H](NC(=O)[C@@H](N)CCCCN)[C@@H](C)CC)[C@@H](C)CC)C(=O)N[C@@H](C)C(=O)N[C@@H](C)C(=O)N[C@@H](CC(C)C)C(=O)N[C@@H](CCC(=O)O)C(=O)N[C@@H](CCC(N)=O)C(=O)O [SAF-p2C] (H-KIRALKWKNAHLKQEIAALEQEIAALEQ-OH) |  | thin | unfolded | ~20 |  | 
CC[C@H](C)[C@H](NC(=O)[C@H](CCC(=O)O)NC(=O)[C@H](CCC(N)=O)NC(=O)[C@H](CCC(=O)O)NC(=O)[C@H](CC(C)C)NC(=O)[C@H](C)NC(=O)[C@H](C)NC(=O)[C@@H](NC(=O)[C@H](CCC(=O)O)NC(=O)[C@H](CCC(N)=O)NC(=O)[C@H](CCCCN)NC(=O)[C@H](CC(C)C)NC(=O)[C@H](Cc1c[nH]cn1)NC(=O)[C@H](C)NC(=O)[C@H](CC(N)=O)NC(=O)[C@H](CCCCN)NC(=O)[C@H](C)NC(=O)[C@H](CCCCN)NC(=O)[C@H](CC(C)C)NC(=O)[C@H](C)NC(=O)[C@H](CCCNC(=N)N)NC(=O)[C@@H](NC(=O)[C@@H](N)CCCCN)[C@@H](C)CC)[C@@H](C)CC)C(=O)N[C@@H](C)C(=O)N[C@@H](C)C(=O)N[C@@H](CC(C)C)C(=O)N[C@@H](CCC(=O)O)C(=O)N[C@@H](CCC(N)=O)C(=O)O [SAF-p2D] (H-KIRALKAKNAHLKQEIAALEQEIAALEQ-OH) |  | no | ~15% | ~45 | no | 
K ISALKNK NASLKQE IAALEQE IAALEQ (KISALKNKNASLKQEIAALEQEIAALEQ) [SAF-p2A] | low solubility |  | unfolded |  |  | 
tropomyosin [reference compound] |  |  |  |  |  | could be aligned to give a LD signal
